The supplement of paper PMC10307832

Compound: CCn1c(-c2nonc2N)nc2c(C#CC(C)(C)O)ncc(OC[C@H]3CCCNC3)c21 + CC(=O)Nc1cccc(-n2c(=O)n(C3CC3)c(=O)c3c(Nc4ccc(I)cc4F)n(C)c(=O)c(C)c32)c1 [Trametinib] (partner 0.02 µM)
Experiment: relative viability (nuclei count vs DMSO), 5 days (fraction); higher = more cells survive
Conditions: first compound 1 µM
Method in brief: (§1)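 After 5 days of treatment, lung cancer cells in 1536-well plates were fixed and stained in a single step (final 0.05% Triton X-100, 1% formaldehyde, 1 ug/ml Hoechst) and their nuclei counted on 4× images. Treatment had been applied by pin tool the day after seeding as one drug alone or as a fixed anchor-drug dose with five library-drug doses (not always all listed) in √10 steps. Relative viability is the nuclei count of treated wells divided by that of vehicle wells, and values are medians of duplicate plates.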

Cell Line	relative viability
LU99A	0.525
BEN	1.12
HARA	0.611
NCI-H1648	0.418
HCC-78	0.652

Compound: CCn1c(-c2nonc2N)nc2c(C#CC(C)(C)O)ncc(OC[C@H]3CCCNC3)c21 + C[C@]1(O)C[C@@H](c2nc(-c3ccc4ccc(-c5ccccc5)nc4c3)c3c(N)nccn32)C1 [Linsitinib] (partner 1 µM)
Experiment: as above
Conditions: first compound 0.01 µM
Method in brief: as §1

Cell Line	relative viability
NCI-H727	0.271
EBC-1	0.947
NCI-H1703	0.939
NCI-H1993	0.774
SW 1573	0.827
NCI-H838	1.03
LCLC-103H	1.13
NCI-H520	1.03
NCI-H2126	0.751
EMC-BAC-2	0.82
NCI-H2085	0.843
Calu-6	0.88
HCC-366	0.598
NCI-H1666	0.805
NCI-H596	0.993
LK-2	0.7
NCI-H2087	0.966

Cell Line	relative viability
SK-MES-1	1.07
H3255	0.958
COR-L23	0.891
COR-L 105	1.1
IA-LM	0.62
LOU-NH91	0.953
NCI-H2405	0.924
HOP-62	1.07
HCC-44	0.608
A549	0.681
LU99A	0.473
BEN	0.9
HARA	0.861
HCC-78	0.502
NCI-H1299	0.95
NCI-H1563	1.18
ABC-1	0.818

Same assay, conditions: first compound 0.03162 µM

Cell Line	relative viability
NCI-H727	0.313
EBC-1	0.776
NCI-H1703	0.836
NCI-H1993	0.736
SW 1573	0.793
NCI-H838	1.05
LCLC-103H	1.09
NCI-H520	1.07
NCI-H2126	0.716
EMC-BAC-2	0.852
NCI-H2085	0.91
Calu-6	1.06
HCC-366	0.761
NCI-H1666	0.92
NCI-H596	1.08
LK-2	0.715
NCI-H2087	0.746

Cell Line	relative viability
SK-MES-1	1.11
H3255	1.09
COR-L23	0.946
COR-L 105	0.848
IA-LM	0.554
LOU-NH91	0.987
NCI-H2405	1.06
HOP-62	0.942
HCC-44	0.692
A549	0.624
LU99A	0.524
BEN	1.08
HARA	0.961
HCC-78	0.496
NCI-H1299	1.06
NCI-H1563	1.07
ABC-1	0.73

Same assay, conditions: first compound 0.1 µM

Cell Line	relative viability
NCI-H727	0.257
EBC-1	0.837
NCI-H1703	0.594
NCI-H1993	0.758
SW 1573	0.81
NCI-H838	1.02
LCLC-103H	1.01
NCI-H520	0.849
NCI-H2126	0.695
EMC-BAC-2	0.837
NCI-H2085	0.804
Calu-6	0.842
HCC-366	0.498
NCI-H1666	0.928
NCI-H596	0.931
LK-2	0.422
NCI-H2087	0.932

Cell Line	relative viability
SK-MES-1	1.05
H3255	0.903
COR-L23	0.884
COR-L 105	1.29
IA-LM	0.658
LOU-NH91	0.963
HOP-62	1.03
HCC-44	0.636
A549	0.444
LU99A	0.551
BEN	0.772
HARA	0.973
HCC-78	0.5
NCI-H1299	0.948
NCI-H1563	1.15
ABC-1	0.847

Same assay, conditions: first compound 0.3162 µM

Cell Line	relative viability
NCI-H727	0.309
EBC-1	0.732
NCI-H1703	0.449
NCI-H1993	0.731
SW 1573	0.7
NCI-H838	0.991
LCLC-103H	1.04
NCI-H520	0.795
NCI-H2126	0.671
EMC-BAC-2	0.828
NCI-H2085	0.879
Calu-6	0.952
HCC-366	0.522
NCI-H1666	0.732
NCI-H596	1.03
LK-2	0.746
NCI-H2087	0.924

Cell Line	relative viability
SK-MES-1	1.03
H3255	0.888
COR-L23	0.805
COR-L 105	0.747
IA-LM	0.518
LOU-NH91	0.88
NCI-H2405	0.794
HOP-62	0.921
HCC-44	0.652
A549	0.505
LU99A	0.579
BEN	0.767
HARA	0.947
HCC-78	0.424
NCI-H1299	0.941
NCI-H1563	1.08
ABC-1	0.685

Same assay, conditions: first compound 1 µM

Cell Line	relative viability
NCI-H727	0.288
EBC-1	0.632
NCI-H1703	0.358
NCI-H1993	0.767
SW 1573	0.772
NCI-H838	0.975
LCLC-103H	1.15
NCI-H520	0.674
NCI-H2126	0.788
EMC-BAC-2	0.837
NCI-H2085	0.921
Calu-6	0.935
HCC-366	0.668
NCI-H1666	0.738
NCI-H596	1.03
LK-2	0.559
NCI-H2087	0.838
SK-MES-1	1
